Measured values from patent US10259809B2, “Fluorinated imidazo[4,5-C]quinoline derivatives as inhibitors of bromodomain containing proteins” (Trillium Therapeutics Inc., priority 2015, dated 2019).
Where a name gives a salt, the structure may show the parent alone.

Experiments:
BRD2-1: Domain 1 of BRD2 = molecular target: T1, BRD2-1: Domain 1 of BRD2 (Homo sapiens, UniProt P25440); experiment: Bromodomain binding assay (Example 6), BRD2-1
T1 construct: BRD2-1: Domain 1 of BRD2
Description: (§1) The binding of the compounds of the application to bromodomains BRD2, BRD3 and BRD4 was assessed using a time resolved fluorescent resonance energy transfer binding assay (Alpha Screen Technology), that measures the binding of an acetylated histone peptide to the bromodomain protein.
(§2) The bromodomain protein, histone peptide and a variable concentration of test compound were incubated together to reach thermodynamic equilibrium.

[1] = molecular target: T2, BRD4-FL: Full length BRD4 (Homo sapiens, UniProt O60885); experiment: Bromodomain binding assay (Example 6), BRD4-FL
T2 construct: BRD4-FL: Full length BRD4
Description: as §1, §2

BRD3-1: Domain 1 of BRD3 = molecular target: T3, BRD3-1: Domain 1 of BRD3 (Homo sapiens, UniProt Q15059); experiment: Bromodomain binding assay (Example 6), BRD3-1
T3 construct: BRD3-1: Domain 1 of BRD3
Description: as §1, §2

BRD4-FL = molecular target: T4, BRD4-FL (Homo sapiens, UniProt O60885); experiment: BET Bromodomain AlphaScreen assay (Example 9), BRD4-FL; type: binding
T4 construct: BRD4-FL: Full length BRD4
Description: (§3) The reader assay was a binding assay using the AlphaScreen technology fluorescence energy resonance transfer (FRET) assay. The biotinylated peptide binding to the reader domain of His-tagged protein is monitored by the singlet oxygen transfer from the Streptavidin-coated donor beads to the AlphaScreen Ni-chelate acceptor beads.
(§4) Reaction buffer: 50 mM Hepes, pH7.5, 100 mM NaCl, 0.05% CHAPS, 0.1% BSA, and 1% DMSO (Buffer and DMSO concentration may be different for different reader).
(§5) Biotin-peptide; sequences were different for different targets.
(§6) Reaction Procedure: • 1. Deliver 4× BRD in wells of reaction plate except No BRD control wells. Add buffer instead. • 2. Deliver compounds in 100% DMSO into the BRD mixture by Acoustic technology (Echo550; nanoliter range). Spin down and pre-incubation for 30 min. • 3. Deliver 4× Ligand. Spin and shake. • 4. Incubate for 30 min at room temperature with gentle shaking. • 5. Deliver 4× donor beads. Spin and shake. • 6. Deliver 4× acceptor beads. Spin and shake. Then gentle shaking in the dark for 60 min. • 7.

BRD2-1 = molecular target: T5, BRD2-1 (Homo sapiens, UniProt P25440); experiment: BET Bromodomain AlphaScreen assay (Example 9), BRD2-1; type: binding
T5 construct: BRD2-1: Domain 1 of BRD2
Description: as §3, §4, §5, §6

BRD3-1 = molecular target: T6, BRD3-1 (Homo sapiens, UniProt Q15059); experiment: BET Bromodomain AlphaScreen assay (Example 9), BRD3-1; type: binding
T6 construct: BRD3-1: Domain 1 of BRD3
Description: as §3, §4, §5, §6

[2] = system: MM.1S subcutaneous human multiple myeloma xenograft; experiment: MM.1S subcutaneous human multiple myeloma xenograft model, efficacy; type: in vivo, NOD SCID mice
Description: • Species & Strain: NOD SCID mice • Age: 7-8 week • Total Number: 50 mice plus 40% spare • Sex: Female • Body Weight: 18 to 22 g Animal Maintenance
Groups and treatments started when the mean tumor volume reached about 100-150 mm^3. Based on the tumor volume, mice were randomly assigned to respective groups using a computer-generated randomization procedure.
Each mouse was inoculated subcutaneously on the right flank with MM.1S tumor cells (5×10^6) in 0.1 ml of RPMI-1640 without serum (mixed matrigel) for tumor development. The treatment started when the mean tumor size reached approximately 100-150 mm^3. Mice were then randomized into groups.
The measurement of tumor size was conducted twice weekly with a caliper and the tumor volume (mm^3) was estimated using the formula: TV=a×b^2/2, where “a” and “b” are long and short diameters of a tumor, respectively. The TVs were used for calculation of the tumor growth inhibition (TGI, an indicator of antitumor effectiveness) value using the formula: TGI=(1−T/C)×100%, where “T” and “C” is the mean relative volumes (% tumor growth) of the tumors in the treated and the control groups, respectively, on a given day after tumor inoculation. The experiment terminated when the mean tumor volume exceeded 2000 mm^3 or severe body weight loss was observed.

[3] = Liver microsome stability, human; type: in vitro ADME; details: pooled human liver microsomes (50 donors), 1 μM compound, 0.5 mg/ml microsomes, 37° C., read-out: % recovery Human Liver Microsomes (HLM) (30 min)
Description: (§7) Working stocks were initially diluted to a concentration of 40.0 μM in 0.1 M potassium phosphate buffer before addition to the reaction vials. Pooled mouse (CD-1, male) or human (50 donors) liver microsomes were utilized at a final concentration of 0.5 mg/ml. Duplicate wells were used for each time point (0 and 30 minutes). Reactions were carried out at 37° C. in a shaker, and the final concentration of DMSO was kept constant at 0.01%. The final volume for each reaction was 100 μL, which includes the addition of an NADPH-Regeneration solution (NRS) mix. This NRS mix was comprised of glucose 6-phosphate dehydrogenase (0.4 U/mL), NADP+ (1.3 mM), MgCl2 (3.3 mM), and glucose 6-phosphate (3.3 mM) in assay mixtures. Upon completion of the 30 minute time point, reactions were terminated by the addition of 1.5-volumes (150 μL) of ice-cold, acetonitrile with 0.5% formic acid and internal standard. Samples were then centrifuged at 4,000 rpm for 10 minutes to remove debris and precipitated protein. Approximately 150 μL of supernatant was subsequently transferred to a new 96 well microplate for LC/MS analysis.
(§8) Narrow-window mass extraction LC/MS analysis was performed for all samples using a Waters Xevo quadrupole time-of-flight (QTof) mass spectrometer and an ACQUITY UPLC system, to determine relative peak areas of parent compound.

[4] = Liver microsome stability, mouse; type: in vitro ADME, mouse (CD-1; details: male, CD-1, mouse, pooled mouse liver microsomes, 1 μM compound, 0.5 mg/ml microsomes, 37° C., read-out: % recovery Mouse Liver Microsomes (MLM) (30 min)
Description: as §7, §8

T3 sequence (Q15059 34-140 limits assumed): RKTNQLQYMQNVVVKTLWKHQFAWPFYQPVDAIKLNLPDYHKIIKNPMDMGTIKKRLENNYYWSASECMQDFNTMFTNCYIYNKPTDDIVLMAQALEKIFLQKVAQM
T6 sequence (Q15059 34-140 limits assumed): as above
T5 sequence (P25440 74-180 limits assumed): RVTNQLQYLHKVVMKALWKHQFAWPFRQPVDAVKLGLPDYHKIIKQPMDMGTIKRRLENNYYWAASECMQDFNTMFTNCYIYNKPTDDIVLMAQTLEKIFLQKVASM
T1 sequence (P25440 74-180 limits assumed): as above

Row | SMILES | IC50 (BRD2-1: Domain 1 of BRD2) [nM] | IC50 [1] [nM] | IC50 (BRD3-1: Domain 1 of BRD3) [nM] | EC50 (BRD4-FL) [nM] | EC50 (BRD2-1) [nM] | EC50 (BRD3-1) [nM] | tumor volume ([2]; 10 mg/kg, 30 mg/kg and 60 mg/kg PO QD × 21, 21 days post administration, dose dependent) | tumor volume compared with carfilzomib (CFZ) ([2]; 30 mg/kg and 60 mg/kg PO, 21 days post administration, CFZ 5 mg/kg IV) | antitumor activity ([2]; low-dose 10 mg/kg PO) | recovery at 30 min, 1 μM [3] [%] | recovery at 30 min, 1 μM [4] [%]
1 | COc1cc2c(cc1-c1c(C)noc1C)ncc1nc(C3CCOCC3)n([C@@H](C)COC(F)F)c12 [2(a), 4-[1-[(1S)-2-(difluoromethoxy)-1-methyl-ethyl]-8-methoxy-2-tetrahydropyran-4-yl-imidazo[4,5-c]quinolin-7-yl]-3,5-dimethyl-isoxazole] | 63 | 40 | 44 | 40.4 | 63.4 | 43.8 |  |  |  |  | 
2 | COc1cc2c(cc1-c1c(C)noc1C)ncc1nc(C3CCOCC3)n([C@H](C)COC(F)F)c12 [2(g), 4-[1-[(1R)-2-(difluoromethoxy)-1-methyl-ethyl]-8-methoxy-2-tetrahydropyran-4-yl-imidazo[4,5-c]quinolin-7-yl]-3,5-dimethyl-isoxazole] | 24 | 14 | 17 | 7.17 | 6.89 | 2.76 | significantly reduced the tumor volume | reduced the tumor volume to a greater extent than carfilzomib | moderate antitumor activity | 43 | 55.5
3 | COc1cc2c(cc1-c1c(C)noc1C)ncc1nc(C3CCC(F)(F)CC3)n([C@H](C)COC(F)F)c12 [2(h), 4-[2-(4,4-difluorocyclohexyl)-1-[(1R)-2-(difluoromethoxy)-1-methyl-ethyl]-8-methoxy-imidazo[4,5-c]quinolin-7-yl]-3,5-dimethyl-isoxazole] | 47 | 21 | 31 | 46.2 | 27.3 | 6.96 |  |  |  | 62.3 | 35.2
4 | COc1cc2c(cc1-c1c(C)noc1C)ncc1nc(C3CCCCC3)n([C@H](C)COC(F)F)c12 [2(j), 4-[2-cyclohexyl-1-[(1R)-2-(difluoromethoxy)-1-methyl-ethyl]-8-methoxy-imidazo[4,5-c]quinolin-7-yl]-3,5-dimethyl-isoxazole] |  |  |  |  |  |  |  |  |  | 1.5 | 7
5 | COc1cc2c(cc1-c1c(C)noc1C)ncc1nc(C3CCCC3)n([C@H](C)COC(F)F)c12 [2(k), 4-[2-cyclopentyl-1-[(1R)-2-(difluoromethoxy)-1-methyl-ethyl]-8-methoxy-imidazo[4,5-c]quinolin-7-yl]-3,5-dimethyl-isoxazole] |  |  |  |  |  |  |  |  |  | 0.1 | 0.6
6 | COc1cc2c(cc1-c1c(C)noc1C)ncc1nc(C3CCOCC3)n(CCOC(F)F)c12 [2(n), 4-[1-[2-(difluoromethoxy)ethyl]-8-methoxy-2-tetrahydropyran-4-yl-imidazo[4,5-c]quinolin-7-yl]-3,5-dimethyl-isoxazole] |  |  |  |  |  |  |  |  |  | 58.1 | 74.8
7 | COc1cc2c(cc1-c1c(C)noc1C)ncc1nc(C3CCOCC3)n([C@H]3CC[C@H](OC(F)F)CC3)c12 [2(r)] |  |  |  | 406 | 281 | 104 |  |  |  |  | 
8 | COc1cc2c(cc1-c1c(C)noc1C)ncc1nc(CN3CCOCC3)n([C@H](C)COC(F)F)c12 [3(a), 4-[[1-[(1R)-2-(difluoromethoxy)-1-methyl-ethyl]-7-(3,5-dimethylisoxazol-4-yl)-8-methoxy-imidazo[4,5-c]quinolin-2-yl]methyl]morpholine trihydrochloride] | 19 | 10 | 10 | 9.52 | 19.3 | 10 |  |  |  | 1.9 | 3.7
9 | COc1cc2c(cc1-c1c(C)noc1C)ncc1nc(CN(C)C)n([C@H](C)COC(F)F)c12 [3(b), 1-[1-[(1R)-2-(difluoromethoxy)-1-methyl-ethyl]-7-(3,5-dimethylisoxazol-4-yl)-8-methoxy-imidazo[4,5-c]quinolin-2-yl]-N,N-dimethyl-methanamine] | 32 | 32 | 18 |  |  |  |  |  |  | 13.7 | 0.5
10 | COc1cc2c(cc1-c1c(C)noc1C)ncc1nc(CN(C)C)n([C@H](C)COC(F)F)c12 [3(b).HCl] |  |  |  | 31.7 | 32.3 | 17.6 |  |  |  |  | 
11 | COc1cc2c(cc1-c1c(C)noc1C)ncc1nc(CN3CCC(F)(F)CC3)n([C@H](C)COC(F)F)c12 [3(f), 4-[1-[(1R)-2-(difluoromethoxy)-1-methyl-ethyl]-2-[(4,4-difluoro-1-piperidyl)methyl]-8-methoxy-imidazo[4,5-c]quinolin-7-yl]-3,5-dimethyl-isoxazole] |  |  |  |  |  |  |  |  |  | 0.6 | 2.6
12 | CNCc1nc2cnc3cc(-c4c(C)noc4C)c(OC)cc3c2n1[C@H](C)COC(F)F [3(g)] |  |  |  |  |  |  |  |  |  | 58.5 | 0.1
13 | COc1cc2c(cc1-c1c(C)noc1C)ncc1nc(CN3CCC(F)(F)C3)n([C@H](C)COC(F)F)c12 [3(i)] |  |  |  |  |  |  |  |  |  | 7.4 | 10.4
14 | COc1cc2c(cc1-c1c(C)noc1C)ncc1nc(CN3CC(F)(F)C3)n([C@H](C)COC(F)F)c12 [3(j)] |  |  |  |  |  |  |  |  |  | 6.9 | 8
